Test results reported in PubChem BioAssay AID2060328 (Molecular Pharmacology Branch, DTP, NCI, 2025).

Test system: MDA-MB-231 multicell spheroids, viability (%T/C)
Assay: Anticancer human tumor MDA-MB-231 cell line growth inhibition [IpAb];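 note: viability read after seven days of drug exposure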;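 for viability, T/C: 100% = DMSO vehicle control viability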
Conditions: for IC50: curve of first compound; for viability, T/C: stronger effect = lower value
Description: Combinatorial screen of targeted agents with ipatasertib and abemaciclib in multi-cell type tumor spheroids
A high-throughput screen of multi-cell type tumor spheroids was designed to identify active combinations of targeted small molecules and ipatasertib or abemaciclib. Complex spheroids include a stromal component modeled by human endothelial cells (HUVEC) and fibroblasts modeled by human mesenchymal stem cells (MSCs). The concentration ranges selected for each drug and investigational agent were based upon clinically achievable concentrations if the clinical Cmax of the agent was known.
Compounds. The drugs and investigational agents: ipatasertib (NSC767898), abemaciclib(NSC768073), selumetinib (NSC741078), trametinib (758246), adavosertib (NSC754352), everolimus (NSC733504), sapanisertib (NSC764658), vemurafenib (NSC761431), venetoclax (NSC766270), copanlisib (NSC809693), apelisib (NSC765974), palbociblib (NSC758247), vemurafenib (NSC761431), dabrafenib (NSC764134), ravoxertinib (NSC781343), BMS-387032 (NSC767048), sotorasib (NSC818433), talazoparib (NSC767125) and afursertib (NSC778305), were obtained from the National Cancer Institute (NCI) Developmental Therapeutics Program Chemical Repository. The FDA-approved anticancer drug set is available from the NCI Developmental Therapeutics Program. […] The stock solutions were prepared in dimethyl sulfoxide (DMSO, Sigma-Aldrich, St. Louis, MO, cat. D2650) at 800-fold the tested concentration and stored at -70 degrees C prior to their use. All drugs and investigational agents were tested over a range starting from a high concentration at or near the clinical Cmax and decreasing in half-log increments. If the clinical Cmax for an agent had not been determined, the highest concentration tested was 10 microM.
NCI60 Cell Culture. NCI60 cell lines were obtained from the NCI Developmental Therapeutics Program Tumor Repository. For each lot of cells, the Repository performed Applied Biosystems AmpFLSTR Identifiler testing with PCR amplification to confirm consistency with the published Identifier STR profile for each cell line. Cells were kept in continuous culture for no more than 20 passages. The optimal seeding densities for each of the cell lines at each time point assessed were determined prior to performing the concentration response studies. Briefly, the NCI60 human tumor lines were grown as monolayers in RPMI 1640 medium supplemented with 10% FBS and 2 mmol/L L-glutamine.
An additional 9 lines were from the NCI60 cell line panel including MDA-MB-231 breast carcinoma, MDA-MB-468 breast carcinoma, MCF7 breast carcinoma, Hs578T breast carcinoma, MALME-3M melanoma, SK-MEL-2 melanoma, SK-OV-3 ovarian carcinoma, DU-145 prostate carcinoma, PC-3 prostate carcinoma, all cell lines along with major genetic alterations are listed on Table 2. Pooled donor human umbilical vein endothelial cells (HUVEC, Lonza, cat. CC-2519) and human mesenchymal stem cells (hMSC, Lonza, cat. PT-2501) were purchased from Lonza (Walkersville, MD).
PDMR cell lines were grown in complete medium (DC medium): Dulbecco's modified Eagle's medium (DMEM)/F12 supplemented with 5% fetal bovine serum (FBS), 2 mM L-glutamine, 100 U/mL penicillin and 100 µg/ml streptomycin, 0.4 µg/ml hydrocortisone, 10 ng/ml epidermal growth factor (EGF) recombinant human protein, 24 µg/mL adenine, and 0.1 mg/mL primocin. During culture from frozen stock vials, PDMR cells were cultured in the same medium containing 10 µM Y-27632 (see Table 3). The PDCs were cultured in complete DMEM/F12 media without 10 microM Y-27632 dihydrochloride for at least two passages prior to the screen. The pooled donor HUVEC and hMSC were cultured in endothelial cell growth medium 2 (PromoCell, Heidelberg, Germany, cat. C-22011) and mesenchymal stem cell growth medium 2 (PromoCell, cat. C-28009), respectively. For all experiments, HUVEC and hMSC were used at passages </=5.
[…]

[1] = second compound 0.1 µM, first compound 0.0316 µM
[2] = second compound 0.1 µM, first compound 0.1 µM
[3] = second compound 0.1 µM, first compound 0.316 µM
[4] = second compound 0.1 µM, first compound 1 µM
[5] = second compound 0.1 µM, first compound 3.16 µM
[6] = second compound 0.1 µM, first compound 10 µM
[7] = second compound 0.316 µM, first compound 0.0316 µM
[8] = second compound 0.316 µM, first compound 0.1 µM
[9] = second compound 0.316 µM, first compound 0.316 µM
[10] = second compound 0.316 µM, first compound 1 µM
[11] = second compound 0.316 µM, first compound 3.16 µM
[12] = second compound 0.316 µM, first compound 10 µM
[13] = second compound 1 µM, first compound 0.0316 µM
[14] = second compound 1 µM, first compound 0.1 µM
[15] = second compound 1 µM, first compound 0.316 µM
[16] = second compound 1 µM, first compound 1 µM
[17] = second compound 1 µM, first compound 3.16 µM
[18] = second compound 1 µM, first compound 10 µM
[19] = second compound 3.16 µM, first compound 0.0316 µM
[20] = second compound 3.16 µM, first compound 0.1 µM
[21] = second compound 3.16 µM, first compound 0.316 µM
[22] = second compound 3.16 µM, first compound 1 µM
[23] = second compound 3.16 µM, first compound 3.16 µM
[24] = second compound 3.16 µM, first compound 10 µM
[25] = second compound 10 µM, first compound 0.0316 µM
[26] = second compound 10 µM, first compound 0.1 µM
[27] = second compound 10 µM, first compound 0.316 µM
[28] = second compound 10 µM, first compound 1 µM
[29] = second compound 10 µM, first compound 3.16 µM
[30] = second compound 10 µM, first compound 10 µM

Structure (SMILES) | IC50 (second compound 0.1 µM) [nM] | IC50 (second compound 0.316 µM) [nM] | IC50 (second compound 1 µM) [nM] | IC50 (second compound 3.16 µM) [nM] | IC50 (second compound 10 µM) [nM] | viability, T/C [1] [%] | viability, T/C [2] [%] | viability, T/C [3] [%] | viability, T/C [4] [%] | viability, T/C [5] [%] | viability, T/C [6] [%] | viability, T/C [7] [%] | viability, T/C [8] [%] | viability, T/C [9] [%] | viability, T/C [13] [%] | viability, T/C [14] [%] | viability, T/C [19] [%] | viability, T/C [20] [%] | viability, T/C [25] [%] | viability, T/C [26] [%] | other results
C=CCn1c(=O)c2cnc(Nc3ccc(N4CCN(C)CC4)cc3)nc2n1-c1cccc(C(C)(C)O)n1 + CC(C)NCC(C(=O)N1CCN(c2ncnc3c2C(C)CC3O)CC1)c1ccc(Cl)cc1 | 219 | 188 | 170 | 91.4 | < 31.6 | 93 | 86.6 | 32.9 | 17.8 | 16.4 | 20.5 | 92.5 | 74.4 | 30.1 | 76.7 | 68.4 | 60.6 | 48.8 | 44.6 | 32.5 | viability, T/C [10]: 17.3%; viability, T/C [11]: 15.3%; viability, T/C [12]: 19.6%; viability, T/C [15]: 28.3%; viability, T/C [16]: 16.7%; viability, T/C [17]: 15.5%; viability, T/C [18]: 17.4%; viability, T/C [21]: 26.2%; viability, T/C [22]: 15.1%; viability, T/C [23]: 14.6%; viability, T/C [24]: 16.9%; viability, T/C [27]: 21.2%; viability, T/C [28]: 15.3%; viability, T/C [29]: 15%; viability, T/C [30]: 16.6%
CC(C)n1nc(-c2ccc3oc(N)nc3c2)c2c(N)ncnc21 + CC(C)NCC(C(=O)N1CCN(c2ncnc3c2C(C)CC3O)CC1)c1ccc(Cl)cc1 | 15.1 | 5.64 | 2.25 | 0.58 | < 0.316 | 42.5 | 40.5 |  |  |  |  | 38.6 | 35.4 |  | 31.7 | 29.8 | 26.1 | 23.3 | 15.2 | 14.6 | viability, T/C (second compound 0.1 µM, first compound 0.000316 µM): 90.9%; viability, T/C (second compound 0.1 µM, first compound 0.001 µM): 84%; viability, T/C (second compound 0.1 µM, first compound 0.00316 µM): 68.6%; viability, T/C (second compound 0.1 µM, first compound 0.01 µM): 54.5%; viability, T/C (second compound 0.316 µM, first compound 0.000316 µM): 86.8%; viability, T/C (second compound 0.316 µM, first compound 0.001 µM): 69.8%; viability, T/C (second compound 0.316 µM, first compound 0.00316 µM): 56.4%; viability, T/C (second compound 0.316 µM, first compound 0.01 µM): 43.8%; viability, T/C (second compound 1 µM, first compound 0.000316 µM): 67.4%; viability, T/C (second compound 1 µM, first compound 0.001 µM): 59%; viability, T/C (second compound 1 µM, first compound 0.00316 µM): 46.1%; viability, T/C (second compound 1 µM, first compound 0.01 µM): 36.5%; viability, T/C (second compound 3.16 µM, first compound 0.000316 µM): 53.3%; viability, T/C (second compound 3.16 µM, first compound 0.001 µM): 47%; viability, T/C (second compound 3.16 µM, first compound 0.00316 µM): 36.9%; viability, T/C (second compound 3.16 µM, first compound 0.01 µM): 28.3%; viability, T/C (second compound 10 µM, first compound 0.000316 µM): 38.3%; viability, T/C (second compound 10 µM, first compound 0.001 µM): 34.2%; viability, T/C (second compound 10 µM, first compound 0.00316 µM): 27.1%; viability, T/C (second compound 10 µM, first compound 0.01 µM): 18.1%
CC1(C)CCC(CN2CCN(c3ccc(C(=O)NS(=O)(=O)c4ccc(NCC5CCOCC5)c([N+](=O)[O-])c4)c(Oc4cnc5[nH]ccc5c4)c3)CC2)=C(c2ccc(Cl)cc2)C1 + CC(C)NCC(C(=O)N1CCN(c2ncnc3c2C(C)CC3O)CC1)c1ccc(Cl)cc1 | 5990 | 5380 | 4750 | 3680 | < 31.6 | 99 | 96.8 | 103 | 95.9 | 96.9 | 12.4 | 86.2 | 88.3 | 93.7 | 75.9 | 79.4 | 60.8 | 57.2 | 39.8 | 43 | viability, T/C [10]: 94.5%; viability, T/C [11]: 86.1%; viability, T/C [12]: 7.75%; viability, T/C [15]: 75.4%; viability, T/C [16]: 77.7%; viability, T/C [17]: 71.2%; viability, T/C [18]: 10.9%; viability, T/C [21]: 59.4%; viability, T/C [22]: 60.1%; viability, T/C [23]: 56.5%; viability, T/C [24]: 7.09%; viability, T/C [27]: 40.5%; viability, T/C [28]: 39.4%; viability, T/C [29]: 36.4%; viability, T/C [30]: 4.22%
CCCS(=O)(=O)Nc1ccc(F)c(C(=O)c2c[nH]c3ncc(-c4ccc(Cl)cc4)cc23)c1F + CC(C)NCC(C(=O)N1CCN(c2ncnc3c2C(C)CC3O)CC1)c1ccc(Cl)cc1 | 8310 | 6040 | 5310 | 1760 | < 31.6 | 106 | 106 | 104 | 97.2 | 75.4 | 45.1 | 98.1 | 95.9 | 92.2 | 80.1 | 84.8 | 59.3 | 68.2 | 45.4 | 48.2 | viability, T/C [10]: 87.3%; viability, T/C [11]: 61.2%; viability, T/C [12]: 41.1%; viability, T/C [15]: 79.8%; viability, T/C [16]: 71.3%; viability, T/C [17]: 60.1%; viability, T/C [18]: 38.3%; viability, T/C [21]: 61.7%; viability, T/C [22]: 56.7%; viability, T/C [23]: 42.9%; viability, T/C [24]: 30.9%; viability, T/C [27]: 44.2%; viability, T/C [28]: 36.6%; viability, T/C [29]: 35%; viability, T/C [30]: 27.6%
